For the test, the target named is GST-hRIPK1 (8-327) (Homo sapiens (Human), UniProt Q13546). The experiment in a line: Fluorescent Polarization Binding (FP Binding) assay, RIPK1. The settings on record: mean of at least two independent experiments. In outline:
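Binding by fluorescence polarisation at RT: 10 nM baculovirus-expressed GST-hRIPK1 (8-327) and 5 nM fluorescent ligand, 30 min, in 50 mM HEPES pH 7.5, 50 mM MgCl2, 0.02% CHAPS, 1% DMSO. FP read at ex 531/em 595 nm. IC50 from normalised percent inhibition, mean of ≥2 experiments.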

Where [1] appears, read: 10 nM GST-hRIPK1 (8-327), 5 nM fluorescent-labeled ligand, RT, 30 min.

Molecules are shown by their SMILES. A value given as a limit tells only on which side of the number the result lay.

GST-hRIPK1 (8-327), sequence (Q13546 8-327): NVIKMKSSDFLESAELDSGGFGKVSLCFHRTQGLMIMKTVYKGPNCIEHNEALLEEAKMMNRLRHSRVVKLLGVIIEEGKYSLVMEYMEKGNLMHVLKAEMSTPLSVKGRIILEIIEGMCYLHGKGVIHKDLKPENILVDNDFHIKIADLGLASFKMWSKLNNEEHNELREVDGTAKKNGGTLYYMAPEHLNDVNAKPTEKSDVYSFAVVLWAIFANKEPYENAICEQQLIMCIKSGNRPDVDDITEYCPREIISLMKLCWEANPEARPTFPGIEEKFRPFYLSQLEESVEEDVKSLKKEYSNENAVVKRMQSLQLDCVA

`COc1nc(N2CCC(C(=O)N3CCOc4c(C#N)cncc4C3)CC2)ncc1F` [Example 118, 4-[1-(5-fluoro-4-methoxy-pyrimidin-2-yl)piperidine-4-carbonyl]-3,5-dihydro-2H-pyrido[3,4-f][1,4]oxazepine-9-carbonitrile]: the 50% inhibitory concentration (IC50) under setting [1] lay within 0.1 to 100 nM.

Under setting [1], `CCC(C)(C)C(=O)N1Cc2cncc(C#N)c2OC[C@H]1C` [Example 75, (3R)-4-(2,2-dimethylbutanoyl)-3-methyl-3,5-dihydro-2H-pyrido[3,4-f][1,4]oxazepine-9-carbonitrile] yielded an IC50 of 0.1 to 100 nM.

The compound `CC1(C(=O)N2CCOc3c(C#N)cncc3C2)CCN(c2nccn3ncnc23)CC1(F)F` (centres unmarked) [Example 222, 4-[3,3-difluoro-4-methyl-1-([1,2,4]triazolo[1,5-a]pyrazin-8-yl)piperidine-4-carbonyl]-3,5-dihydro-2H-pyrido[3,4-f][1,4]oxazepine-9-carbonitrile] registered an IC50 (GST-hRIPK1 (8-327)) of 0.1 to 100 nM.

As for `COC1(C(=O)N2CCOc3c(F)cncc3C2)CCN(c2ncc(F)c(OCCN(C)C)n2)CC1` [Example 136], under setting [1], the IC50 is over 1000 nM.

`O=C(C(C1CC1)C1CC1)N1CCOc2c(F)cccc2C1` [Example 19, 2,2-dicyclopropyl-1-(9-fluoro-3,5-dihydro-2H-1,4-benzoxazepin-4-yl)ethanone]: the IC50 under setting [1] is over 1000 nM.

For the setting “GST-hRIPK1 (8-327)”, `O=C(C1CCN(c2ccnc3c(F)cnn23)C[C@@H]1F)N1CCOc2c(F)cncc2C1` (stereo partly drawn) [Example 256, (9-fluoro-3,5-dihydro-2H-pyrido[3,4-f][1,4]oxazepin-4-yl)-[(3,4)-trans-3-fluoro-1-(3-fluoropyrazolo[1,5-a]pyrimidin-7-yl)-4-piperidyl]methanone] came in with a 50% inhibitory concentration (IC50) of 0.1 to 100 nM.

Turning to `Cc1ocnc1C(=O)N1CCC(F)(C(=O)N2CCOc3c(C#N)cncc3C2)CC1` [Example 173, 4-[4-fluoro-1-(5-methyloxazole-4-carbonyl)piperidine-4-carbonyl]-3,5-dihydro-2H-pyrido[3,4-f][1,4]oxazepine-9-carbonitrile], the half-inhibitory concentration (IC50) under setting [1] is 100 to 1000 nM.

The compound `O=C(C1=CCN(c2ncc(F)cn2)CC1)N1CCOc2c(F)cncc2C1` [Example 248] returned an IC50 (GST-hRIPK1 (8-327)) of 100 to 1000 nM.

`CC(CF)(CF)C(=O)N1CCOc2c(C#N)cncc2C1` [Example 147, 4-[3-fluoro-2-(fluoromethyl)-2-methyl-propanoyl]-3,5-dihydro-2H-pyrido[3,4-f][1,4]oxazepine-9-carbonitrile]: the IC50 under setting [1] was 0.1 to 100 nM.

In turn, `N#Cc1cncc2c1OCCN(C(=O)C1(F)CCN(c3ncc4c(n3)CCC4)CC1)C2` [Example 111, 4-[1-(6,7-dihydro-5H-cyclopenta[d]pyrimidin-2-yl)-4-fluoro-piperidine-4-carbonyl]-3,5-dihydro-2H-pyrido[3,4-f][1,4]oxazepine-9-carbonitrile] registered an IC50 under setting [1] of 100 to 1000 nM.

The compound `CN(C)CCCOc1nc(N2CCC(F)(C(=O)N3CCOc4c(C#N)cncc4C3)CC2)ncc1F` [Example 127, 4-[1-[4-[3-(dimethylamino)propoxy]-5-fluoro-pyrimidin-2-yl]-4-fluoro-piperidine-4-carbonyl]-3,5-dihydro-2H-pyrido[3,4-f][1,4]oxazepine-9-carbonitrile] displayed an IC50 under setting [1] of 100 to 1000 nM.

`N#Cc1cncc2c1OCCN(C(=O)C1(F)CCN(c3ncc(F)n4ncnc34)CC1)C2` [Example 294, 4-[4-fluoro-1-(5-fluoro-[1,2,4]triazolo[1,5-a]pyrazin-8-yl)piperidine-4-carbonyl]-3,5-dihydro-2H-pyrido [3,4-f][1,4]oxazepine-9-carbonitrile] came in with an IC50 (GST-hRIPK1 (8-327)) of 0.1 to 100 nM.

For `N#Cc1cncc2c1OCCN(C(=O)C1CCN(c3nc(F)c(F)cc3F)CC1)C2` [Example 288, 4-[1-(3,5,6-trifluoro-2-pyridyl)piperidine-4-carbonyl]-3,5-dihydro-2H-pyrido[3,4-f][1,4]oxazepine-9-carbonitrile], the concentration for half-maximal inhibition (IC50) (GST-hRIPK1 (8-327)) was in the range of 0.1 to 100 nM.

Under setting [1], `N#Cc1cnc(N2CCC(F)(C(=O)N3CCOc4c(F)cncc4C3)CC2)nc1` [Example 159, 2-[4-fluoro-4-(9-fluoro-3,5-dihydro-2H-pyrido[3,4-f][1,4]oxazepine-4-carbonyl)-1-piperidyl]pyrimidine-5-carbonitrile] registered an IC50 of 100 to 1000 nM.

By IC50 is commonly meant the concentration needed to halve the response being measured. Low values mean greater potency, high ones weaker potency.
